Laboratory results from the NIST ThermoML archive (doi:10.1016/j.jct.2016.10.021).
± gives the expanded uncertainty stated by the source.

Experiments:
[1] = wn = mass fraction of the nth substance listed; conditions: 303.15 K; for surface tension liquid-gas: Pendant drop shape; for viscosity / mass density: 100 kPa, Liquid; for viscosity: Concentric cylinders viscometry; for mass density: Vibrating tube method
[2] = for surface tension liquid-gas: Pendant drop shape; for viscosity / mass density: 101.33 kPa, Liquid; for viscosity: Concentric cylinders viscometry; for mass density: Vibrating tube method

C1CCC2=[NH+]CCCN2CC1.CC(=O)[O-] [2,3,4,6,7,8,9,10-octahydropyrimido[1,2-a]azepinium acetate] + O
[1]
Conditions | mass density [kg/m3] | surface tension liquid-gas [mN/m] | viscosity [mPa·s]
w2 = 0.001127 | 1069.1 ± 4.5 | 35.94 ± 0.87 | 84.73 ± 2.2
w2 = 0.002156 | 1068.4 ± 4.5 | 35.99 ± 0.87 | 84.7 ± 2.2
w2 = 0.003932 | 1066.9 ± 4.5 | 36.09 ± 0.87 | 84.66 ± 2.2
w2 = 0.005106 | 1065.9 ± 4.5 | 36.15 ± 0.87 | 84.62 ± 2.2
w2 = 0.006373 | 1065 ± 4 | 36.23 ± 0.87 | 84.59 ± 2.2

C1CCC2=NCCC[NH+]2CC1.O=C([O-])C(F)(F)F [1,8-diazabicyclo[5.4.0]undec-7-enium trifluoroacetate] + O
[1]
Conditions | mass density [kg/m3] | surface tension liquid-gas [mN/m] | viscosity [mPa·s]
w2 = 0.001118 | 1256.6 ± 4.2 | 31.98 ± 0.74 | 493.76 ± 18
w2 = 0.002196 | 1256.2 ± 4.2 | 32.01 ± 0.74 | 493.59 ± 18
w2 = 0.003948 | 1255.7 ± 4.2 | 32.06 ± 0.74 | 493.33 ± 18
w2 = 0.005067 | 1255.2 ± 4.2 | 32.09 ± 0.74 | 493.17 ± 18
w2 = 0.006935 | 1254.6 ± 4.2 | 32.14 ± 0.74 | 492.85 ± 18

C1CCC2=[NH+]CCCN2CC1.O=S(=O)([O-])C(F)(F)F + O
[1]
Conditions | mass density [kg/m3] | surface tension liquid-gas [mN/m] | viscosity [mPa·s]
w2 = 0.001106 | 1352.7 ± 4.3 | 29.8 ± 0.7 | 524.23 ± 19
w2 = 0.002067 | 1352.2 ± 4.3 | 29.74 ± 0.73 | 524.18 ± 19
w2 = 0.003286 | 1351.6 ± 4.3 | 29.66 ± 0.73 | 524.11 ± 19
w2 = 0.004194 | 1351.1 ± 4.3 | 29.6 ± 0.7 | 524.06 ± 19
w2 = 0.005671 | 1350.5 ± 4.3 | 29.51 ± 0.72 | 523.99 ± 19

C1CCC2=NCCC[NH+]2CC1.O=C([O-])C(F)(F)F [1,8-diazabicyclo[5.4.0]undec-7-enium trifluoroacetate]
[2]
Conditions | mass density [kg/m3] | surface tension liquid-gas [mN/m] | viscosity [mPa·s]
293.15 K | 1264.6 ± 4.2 | 32.47 ± 0.75 | 1193.2 ± 54
303.15 K | 1256.6 ± 4.2 | 31.98 ± 0.74 | 493.76 ± 18
313.15 K | 1248.9 ± 4.2 | 31.52 ± 0.74 | 236.97 ± 7
323.15 K | 1241.4 ± 4.2 | 31.05 ± 0.74 | 127.92 ± 3.2
333.15 K | 1234 ± 4.2 | 30.65 ± 0.73 | 75.72 ± 1.7
343.15 K | 1226.6 ± 4.2 | 30.15 ± 0.73 | 48.46 ± 1.1
353.15 K | 1219.2 ± 4.2 | 29.74 ± 0.73 | 32.94 ± 0.74
363.15 K | 1211.9 ± 4.2 | – | 23.43 ± 0.53

C1CCC2=[NH+]CCCN2CC1.CC(=O)[O-] [2,3,4,6,7,8,9,10-octahydropyrimido[1,2-a]azepinium acetate]
[2]
Conditions | mass density [kg/m3] | surface tension liquid-gas [mN/m] | viscosity [mPa·s]
293.15 K | 1076 ± 4.1 | 36.88 ± 0.78 | 164.74 ± 4.4
303.15 K | 1069.1 ± 4.1 | 35.94 ± 0.77 | 84.73 ± 2
313.15 K | 1062.3 ± 4.1 | 34.6 ± 0.76 | 48.34 ± 1.1
323.15 K | 1055.6 ± 4.1 | 33.47 ± 0.75 | 30.38 ± 0.69
333.15 K | 1048.7 ± 4.1 | 32.38 ± 0.75 | 20.36 ± 0.46
343.15 K | 1041.8 ± 4.1 | 31.46 ± 0.74 | 14.39 ± 0.33
353.15 K | 1034.9 ± 4.1 | 30.63 ± 0.73 | 10.59 ± 0.24
363.15 K | 1028 ± 4 | – | 8.052 ± 0.18

C1CCC2=NCCC[NH+]2CC1.CS(=O)(=O)[O-] [1,8-diazabicyclo[5.4.0]undec-7-enium methanesulfonate] + O
[1]
Conditions | mass density [kg/m3] | surface tension liquid-gas [mN/m] | viscosity [mPa·s]
w2 = 0.001054 | 1219.8 ± 4.2 | 41.35 ± 0.81 | 1177 ± 54
w2 = 0.001987 | 1219.37 ± 4.2 | 41.43 ± 0.81 | 1176.8 ± 54
w2 = 0.003524 | 1218.75 ± 4.2 | 41.56 ± 0.82 | 1176.5 ± 54
w2 = 0.004663 | 1218.3 ± 4.2 | 41.69 ± 0.82 | 1176.3 ± 54
w2 = 0.005967 | 1217.81 ± 4.2 | 41.78 ± 0.82 | 1176.1 ± 54

C1CCC2=[NH+]CCCN2CC1.O=S(=O)([O-])C(F)(F)F
[2]
Conditions | mass density [kg/m3] | surface tension liquid-gas [mN/m] | viscosity [mPa·s]
293.15 K | 1361 ± 4.3 | 30.39 ± 0.73 | 1113.1 ± 49
303.15 K | 1352.7 ± 4.3 | 29.8 ± 0.73 | 524.23 ± 19
313.15 K | 1344.5 ± 4.3 | 29.27 ± 0.72 | 276 ± 8.5
323.15 K | 1336.7 ± 4.3 | 28.83 ± 0.72 | 158.89 ± 4.2
333.15 K | 1329 ± 4.3 | 28.31 ± 0.72 | 98.25 ± 2.4
343.15 K | 1321.2 ± 4.2 | 27.71 ± 0.71 | 64.4 ± 1.5
353.15 K | 1313.5 ± 4.2 | 27.15 ± 0.71 | 44.29 ± 1
363.15 K | 1305.9 ± 4.2 | – | 31.75 ± 0.72

C1CCC2=NCCC[NH+]2CC1.CS(=O)(=O)[O-] [1,8-diazabicyclo[5.4.0]undec-7-enium methanesulfonate]
[2]
Conditions | mass density [kg/m3] | surface tension liquid-gas [mN/m] | viscosity [mPa·s]
293.15 K | 1226.6 ± 4.2 | 41.84 ± 0.82 | 3310.1 ± 190
303.15 K | 1219.8 ± 4.2 | 41.35 ± 0.81 | 1177 ± 53
313.15 K | 1212.9 ± 4.2 | 40.49 ± 0.81 | 497.53 ± 18
323.15 K | 1206.1 ± 4.2 | 39.58 ± 0.8 | 241.49 ± 7.2
333.15 K | 1199.5 ± 4.2 | 38.79 ± 0.79 | 131.6 ± 3.3
343.15 K | 1193 ± 4 | 38.23 ± 0.79 | 78.46 ± 1.8
353.15 K | 1186.5 ± 4.2 | 37.54 ± 0.78 | 50.26 ± 1.1
363.15 K | 1180.2 ± 4.2 | – | 34.12 ± 0.77
